Earlier results on one compound are cited in publication PMC7414093 (Proceedings of the National Academy of Sciences of the …, 2020).

As a reminder, the EC50 is the midpoint of the concentration-response curve.

Numbered stars: 1 amine (or outer) side, 2 acyl side, 3 side chain; on linkers, the order of the positions; unused ones are H or OH. Bridge positions count the residues as written; N and C are the ends. Square brackets hold non-standard residues; d marks the D form. Peptide text beside a SMILES is read from it. Phe(3,4-Cl2) = N[C@@H](Cc1ccc(Cl)c(Cl)c1)C(=O)O; X1 = NCCC(=O)N[C@@H](CN[*:2])C(=O)[*:1]; hhPhe = N[C@@H](CCCc1ccccc1)C(=O)O; NMeL = CN[C@@H](CC(C)C)C(=O)O; Orn = NCCC[C@H](N)C(=O)O

The data set has as its system HA. Set-up: method as in PMID 28971971. The following applies: AlphaLISA, HB80.4 as competitor for HA binding; cited from earlier work. (In general: Bead proximity is the source of the signal in Alpha formats.)

`CC(=O)N[C@@H](CCCc1ccccc1)C(=O)N[C@H]1CCCNC(=O)[C@@H](NC(=O)CCN)CNC(=O)[C@H](CO)NC(=O)[C@H](CC(C)C)NC(=O)[C@H](Cc2c[nH]c3ccccc23)NC(=O)[C@H](CCC(=O)O)NC(=O)[C@H](Cc2ccc(Cl)c(Cl)c2)NC(=O)[C@H](Cc2ccc(O)cc2)NC(=O)[C@H](CCC(=O)O)NC(=O)[C@H](CC(C)C)N(C)C1=O` [P7] (Ac-[hhPhe][Orn][NMeL]EY[Phe(3,4-Cl2)]EWLS; linker 2-C via X1): the EC50 is 30 to 70 nM.
